According to patent US12540118B2, “Dendrene amide compound, bactericide and use thereof” (Jiangsu Flag Chemical Industry Co., Ltd., priority 2020, dated 2026):
Read-outs that look alike come from different tables or passages of the source.

Tests used:
Sphaerotheca fuliginea [1] = experiment: Sphaerotheca fuliginea potting method; assay type: in vivo; conditions: 100 mg/L; for pest or weed control at 100 µg/mL: Podosphaera fuliginea, read-out: Sphaerotheca fuliginea control rating
Experimental: The fungicidal activity of the control agents and target compounds are determined. The test and investigation method refers to SOP-SC-1101 sphaerotheca fuliginea potting method in disinfectant rolls written by KANGZHUO and GUBAOGEN in “Standard operation specification for testing biological activity of pesticides”.

Phytophthora infestans = assay type: cell-based
Phytophthora capsici = experiment: Mycelial growth rate method; assay type: cell-based
Alternaria alternata = experiment: Mycelial growth rate method; assay type: cell-based
Rhizoctonia cerealis = experiment: Mycelial growth rate method; assay type: cell-based
Gibberella zeae = assay type: cell-based
[2] = test system: Fusarium wilt of water melon; experiment: Mycelial growth rate method; assay type: cell-based
Erysiphe graminis = Erysiphe graminis potting method; assay type: in vivo; conditions: for pest or weed control at 100 µg/mL: Blumeria graminis, read-out: Erysiphe graminis control rating
Experimental: The fungicidal activity of the control agents and target compounds are determined. The test and investigation method refers to SOP-SC-1116 Erysiphe graminis potting method in disinfectant rolls written by KANGZHUO and GUBAOGEN in “Standard operation specification for testing biological activity of pesticides”.

Sclerotinia sclerotiorum = experiment: Mycelial growth rate method; assay type: cell-based
Alternaria solani = experiment: Mycelial growth rate method; assay type: cell-based
Sphaerotheca fuliginea [3] = experiment: Field test of sphaerotheca fuliginea; assay type: in vivo; conditions: 100 mg/L
Experimental: The test is carried out according to GB/T17980.30-2000 of pesticide field efficacy test guidelines. The survey method is to randomly take four points for each cell and survey all leaves of 2 plants per point. And investigating the sphaerotheca fuliginea incidence before the first application, and investigating the sphaerotheca fuliginea incidence 7 and 14 days after the second application respectively, and calculating the disease index and the controlling effect.

Corn big spot = experiment: Mycelial growth rate method; assay type: cell-based
succinate dehydrogenase = biological target: T1, succinate dehydrogenase (Sus scrofa, UniProt A5GZW8+D0VWV4+Q007T0); experiment: Enzyme activity assay, succinate dehydrogenase (DCIP reduction); assay type: biochemical, porcine; conditions: read-out: Inhibitors (10 μM, SQR)
T1 construct: isolated from porcine hearts; from tissue; host or cells: porcine heart
In short: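 Porcine heart succinate dehydrogenase (2 nM) in 100 mM sodium phosphate pH 7.4, 0.3 mM EDTA, 20 mM sodium succinate and 53 μM DCIP at 23° C with stirring. DCIP reduction followed at 600 nm (ε 21 mM^−1 cm^−1); linear slope minus baseline gives initial rate.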

T1 sequence (Q0QF01 43-664 partner): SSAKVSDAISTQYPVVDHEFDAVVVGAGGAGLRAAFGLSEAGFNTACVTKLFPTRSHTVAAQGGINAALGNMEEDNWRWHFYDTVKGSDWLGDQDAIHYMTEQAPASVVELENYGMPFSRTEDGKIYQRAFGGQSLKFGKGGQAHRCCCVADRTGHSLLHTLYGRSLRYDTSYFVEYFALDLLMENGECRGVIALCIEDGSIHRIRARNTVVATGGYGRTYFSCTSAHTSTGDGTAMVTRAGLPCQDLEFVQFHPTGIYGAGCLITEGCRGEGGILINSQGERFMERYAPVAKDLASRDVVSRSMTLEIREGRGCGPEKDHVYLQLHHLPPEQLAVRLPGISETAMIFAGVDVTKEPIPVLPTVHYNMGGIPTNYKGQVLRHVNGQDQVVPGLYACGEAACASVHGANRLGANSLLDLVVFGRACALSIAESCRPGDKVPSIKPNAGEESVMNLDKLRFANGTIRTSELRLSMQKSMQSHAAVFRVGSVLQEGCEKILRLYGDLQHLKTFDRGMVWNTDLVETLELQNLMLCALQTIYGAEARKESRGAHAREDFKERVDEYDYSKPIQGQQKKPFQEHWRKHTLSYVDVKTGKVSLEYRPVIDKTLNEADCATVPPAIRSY
T1 sequence (Q007T0 29-280): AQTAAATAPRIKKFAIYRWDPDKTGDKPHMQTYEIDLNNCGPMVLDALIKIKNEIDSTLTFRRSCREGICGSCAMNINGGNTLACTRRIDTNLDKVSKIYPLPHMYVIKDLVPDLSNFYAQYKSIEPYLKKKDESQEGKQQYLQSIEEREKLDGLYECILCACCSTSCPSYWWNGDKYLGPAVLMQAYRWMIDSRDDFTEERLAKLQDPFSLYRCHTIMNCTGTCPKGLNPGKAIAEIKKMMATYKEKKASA
T1 sequence (D0VWV4 30-169): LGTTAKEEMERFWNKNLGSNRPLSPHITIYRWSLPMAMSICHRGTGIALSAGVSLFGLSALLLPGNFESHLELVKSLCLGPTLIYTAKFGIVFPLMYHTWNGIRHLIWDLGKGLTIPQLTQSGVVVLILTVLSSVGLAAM
T1 sequence (A5GZW8 57-159 limits assumed): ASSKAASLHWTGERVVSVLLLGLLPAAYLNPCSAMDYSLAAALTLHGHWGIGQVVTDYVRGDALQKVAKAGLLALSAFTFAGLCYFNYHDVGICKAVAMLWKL

CON(C(=O)c1cn(C)nc1C(F)F)C(C)Cc1c(Cl)cc(Cl)cc1Cl (centres unmarked) [Pydiflumetofen, reference compound]
Sphaerotheca fuliginea control rating (Sphaerotheca fuliginea [1]): A (80% ≤ A ≤ 100%)
Inhibition ratio (%) Phytophthora infestans (Phytophthora infestans; 1.5625 μg/mL): A (80% ≤ A ≤ 100%)
Inhibition ratio (%) Phytophthora infestans (Phytophthora infestans; 6.25 μg/mL): A (80% ≤ A ≤ 100%)
Inhibition ratio (%) Phytophthora infestans (Phytophthora infestans; 25 μg/mL): A (80% ≤ A ≤ 100%)
Inhibition ratio (%) Phytophthora capsici (Phytophthora capsici; 1.5625 μg/mL): B (70% ≤ B < 80%)
Inhibition ratio (%) Phytophthora capsici (Phytophthora capsici; 6.25 μg/mL): A (80% ≤ A ≤ 100%)
Inhibition ratio (%) Phytophthora capsici (Phytophthora capsici; 25 μg/mL): A (80% ≤ A ≤ 100%)
Inhibition ratio (%) Alternaria alternata (Alternaria alternata; 1.5625 μg/mL): A (80% ≤ A ≤ 100%)
Inhibition ratio (%) Alternaria alternata (Alternaria alternata; 6.25 μg/mL): A (80% ≤ A ≤ 100%)
Inhibition ratio (%) Alternaria alternata (Alternaria alternata; 25 μg/mL): A (80% ≤ A ≤ 100%)
Inhibition ratio (%) Rhizoctonia cerealis (Rhizoctonia cerealis; 1.5625 μg/mL): A (80% ≤ A ≤ 100%)
Inhibition ratio (%) Rhizoctonia cerealis (Rhizoctonia cerealis; 6.25 μg/mL): A (80% ≤ A ≤ 100%)
Inhibition ratio (%) Rhizoctonia cerealis (Rhizoctonia cerealis; 25 μg/mL): A (80% ≤ A ≤ 100%)
Inhibition ratio (%) Gibberella zeae (Gibberella zeae; 1.5625 μg/mL): A (80% ≤ A ≤ 100%)
Inhibition ratio (%) Gibberella zeae (Gibberella zeae; 6.25 μg/mL): A (80% ≤ A ≤ 100%)
Inhibition ratio (%) Gibberella zeae (Gibberella zeae; 25 μg/mL): A (80% ≤ A ≤ 100%)
Inhibition ratio (%) Fusarium wilt of water melon ([2]; 1.5625 μg/mL): A (80% ≤ A ≤ 100%)
Inhibition ratio (%) Fusarium wilt of water melon ([2]; 6.25 μg/mL): A (80% ≤ A ≤ 100%)
Inhibition ratio (%) Fusarium wilt of water melon ([2]; 25 μg/mL): A (80% ≤ A ≤ 100%)
Erysiphe graminis control rating (Erysiphe graminis; 6.25 mg/L): A (80% ≤ A ≤ 100%)
Erysiphe graminis control rating (Erysiphe graminis; 25 mg/L): A (80% ≤ A ≤ 100%)
Erysiphe graminis control rating (Erysiphe graminis; 100 mg/L): A (80% ≤ A ≤ 100%)
Inhibition ratio (%) Sclerotinia sclerotiorum (Sclerotinia sclerotiorum; 1.5625 μg/mL): C (C <70%)
Inhibition ratio (%) Sclerotinia sclerotiorum (Sclerotinia sclerotiorum; 6.25 μg/mL): A (80% ≤ A ≤ 100%)
Inhibition ratio (%) Sclerotinia sclerotiorum (Sclerotinia sclerotiorum; 25 μg/mL): A (80% ≤ A ≤ 100%)
Inhibition ratio (%) Alternaria solani (Alternaria solani; 1.5625 μg/mL): A (80% ≤ A ≤ 100%)
Inhibition ratio (%) Alternaria solani (Alternaria solani; 6.25 μg/mL): A (80% ≤ A ≤ 100%)
Inhibition ratio (%) Alternaria solani (Alternaria solani; 25 μg/mL): A (80% ≤ A ≤ 100%)
Controlling effect % (Sphaerotheca fuliginea [3]): 92%
Inhibition ratio (%) Corn big spot (Corn big spot; 1.5625 μg/mL): A (80% ≤ A ≤ 100%)
Inhibition ratio (%) Corn big spot (Corn big spot; 6.25 μg/mL): A (80% ≤ A ≤ 100%)
Inhibition ratio (%) Corn big spot (Corn big spot; 25 μg/mL): A (80% ≤ A ≤ 100%)

C=C(c1ccccc1Cl)C(C)N(C(=O)c1c(C(F)F)nn(C)c1F)C1CC1 (centres unmarked) [Compound 72]
pest or weed control at 100 µg/mL (Sphaerotheca fuliginea [1]): 80 to 100%
inhibition at 10 µM (succinate dehydrogenase): > 90%
pest or weed control at 100 µg/mL (Erysiphe graminis; 100 mg/L): 80 to 100%

C=C(CN(C(=O)c1c(C(F)F)nn(C)c1F)C1CC1)c1ccc(S(C)(=O)=O)cc1 [Compound 15]
pest or weed control at 100 µg/mL (Sphaerotheca fuliginea [1]): 70 to 80%
inhibition at 10 µM (succinate dehydrogenase): > 90%
pest or weed control at 100 µg/mL (Erysiphe graminis; 100 mg/L): 80 to 100%

CC(C(=C(Cl)Cl)c1ccc(C#CC2CC2)cc1F)N(C(=O)c1c(C(F)F)nn(C)c1F)C1CC1 (centres unmarked) [Compound 219]
pest or weed control at 100 µg/mL (Sphaerotheca fuliginea [1]): 80 to 100%
inhibition at 10 µM (succinate dehydrogenase): > 90%
pest or weed control at 100 µg/mL (Erysiphe graminis; 100 mg/L): 80 to 100%

CC(C(=C(Cl)Cl)c1ccc(F)cc1Cl)N(C(=O)c1c(C(F)F)nn(C)c1F)C1CC1 (centres unmarked) [Compound 207]
pest or weed control at 100 µg/mL (Sphaerotheca fuliginea [1]): 80 to 100%
inhibition at 10 µM (succinate dehydrogenase): > 90%
pest or weed control at 100 µg/mL (Erysiphe graminis; 100 mg/L): 80 to 100%

CC(C(=C(Cl)Cl)c1ccc(F)cc1)N(C(=O)c1c(C(F)F)nn(C)c1F)C1CC1 (centres unmarked) [Compound 178]
pest or weed control at 100 µg/mL (Sphaerotheca fuliginea [1]): 80 to 100%
inhibition at 10 µM (succinate dehydrogenase): > 90%
pest or weed control at 100 µg/mL (Erysiphe graminis; 100 mg/L): 80 to 100%

C=C(CN(C(=O)c1c(C(F)F)nn(C)c1F)C1CC1)c1ccc(Cl)c(C(F)(F)F)c1 [Compound 11]
pest or weed control at 100 µg/mL (Sphaerotheca fuliginea [1]): 80 to 100%
inhibition at 10 µM (succinate dehydrogenase): > 90%
pest or weed control at 100 µg/mL (Erysiphe graminis; 100 mg/L): 80 to 100%

Cn1nc(C(F)F)c(C(=O)N(CC(=C(Cl)Cl)c2c(Br)cc(Br)cc2Br)C2CC2)c1F [Compound 137]
pest or weed control at 100 µg/mL (Sphaerotheca fuliginea [1]): 80 to 100%
inhibition at 10 µM (succinate dehydrogenase): > 90%
pest or weed control at 100 µg/mL (Erysiphe graminis; 100 mg/L): 80 to 100%
